From publication PMC7366380, “Discovery of a Potent and Selective Covalent Inhibitor and Activity-Based Probe for the Deubiquitylating Enzyme UCHL1, with Antifibrotic Activity” (Journal of the American Chemical Society, 2020)
Values joined by “and” are separate entries in the source; they are usually repeats but may differ in a detail not shown here. Equal entries are not always repeated.

Assays:
Test in all cases: In-cell proteome-wide competitive ABPP, HEK293: other DUBs and proteins
[1] = target: DUBs and other proteins in HEK293 cells (Homo sapiens, UniProt O00303); conditions: for Log2 reporter intensity values, EIF3F: TMT replicates; for Log2 reporter intensity values: EIF3F: competition with ABP 2, DMSO substract (FC); for Log2 reporter intensity values: EIF3F / Log2 reporter intensity values: replicates A-C; for Log2 t-test Difference / Log2 reporter intensity values: EIF3F
Chain of DUBs and other proteins in HEK293 cells (Homo sapiens, UniProt O00303) (O00303 whole entry): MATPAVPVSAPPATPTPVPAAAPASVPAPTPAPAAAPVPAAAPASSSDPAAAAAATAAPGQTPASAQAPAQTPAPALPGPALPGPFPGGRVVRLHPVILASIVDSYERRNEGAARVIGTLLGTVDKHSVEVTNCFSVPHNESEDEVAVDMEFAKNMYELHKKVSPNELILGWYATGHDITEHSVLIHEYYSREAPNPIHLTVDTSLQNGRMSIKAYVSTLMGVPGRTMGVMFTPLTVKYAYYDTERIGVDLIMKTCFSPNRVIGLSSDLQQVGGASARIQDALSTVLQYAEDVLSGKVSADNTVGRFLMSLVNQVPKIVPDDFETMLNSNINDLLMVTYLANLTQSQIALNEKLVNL

[2] = target: T1, DUBs and other proteins in HEK293 cells (Homo sapiens, UniProt P45974); conditions: replicates A-C; for Log2 reporter intensity values: USP5: competition with ABP 2, DMSO substract (FC); for Log2 reporter intensity values: USP5, DMSO subtracted
T1 sequence (P45974 1-858): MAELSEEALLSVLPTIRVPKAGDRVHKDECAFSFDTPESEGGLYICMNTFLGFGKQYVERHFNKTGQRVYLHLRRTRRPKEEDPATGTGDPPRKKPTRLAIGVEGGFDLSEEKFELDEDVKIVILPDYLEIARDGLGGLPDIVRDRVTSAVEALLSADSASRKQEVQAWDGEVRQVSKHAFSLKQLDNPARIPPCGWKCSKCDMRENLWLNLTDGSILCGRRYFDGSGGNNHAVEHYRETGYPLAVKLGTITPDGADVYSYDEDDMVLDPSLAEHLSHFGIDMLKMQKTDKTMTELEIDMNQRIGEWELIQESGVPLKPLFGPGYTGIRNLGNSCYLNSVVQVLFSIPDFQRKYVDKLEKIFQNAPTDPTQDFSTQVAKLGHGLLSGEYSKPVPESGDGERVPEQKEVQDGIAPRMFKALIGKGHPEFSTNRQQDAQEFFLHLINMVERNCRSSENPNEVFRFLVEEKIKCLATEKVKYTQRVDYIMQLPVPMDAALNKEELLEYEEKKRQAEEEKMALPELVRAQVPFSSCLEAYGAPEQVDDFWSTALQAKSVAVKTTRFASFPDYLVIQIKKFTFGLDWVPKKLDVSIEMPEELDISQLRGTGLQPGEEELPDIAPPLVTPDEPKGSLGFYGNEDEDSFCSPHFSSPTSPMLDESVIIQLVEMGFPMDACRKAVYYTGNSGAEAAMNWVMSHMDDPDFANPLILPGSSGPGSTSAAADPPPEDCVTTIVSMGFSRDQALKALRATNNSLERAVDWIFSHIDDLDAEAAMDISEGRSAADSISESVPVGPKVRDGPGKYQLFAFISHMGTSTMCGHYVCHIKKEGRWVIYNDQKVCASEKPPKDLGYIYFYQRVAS

[3] = target: DUBs and other proteins in HEK293 cells (Homo sapiens, UniProt P51784); conditions: replicates A-C; for Log2 reporter intensity values: USP11: competition with ABP 2, DMSO substract (FC); for Log2 reporter intensity values: USP11, DMSO subtracted
Chain of DUBs and other proteins in HEK293 cells (Homo sapiens, UniProt P51784) (P51784 whole entry): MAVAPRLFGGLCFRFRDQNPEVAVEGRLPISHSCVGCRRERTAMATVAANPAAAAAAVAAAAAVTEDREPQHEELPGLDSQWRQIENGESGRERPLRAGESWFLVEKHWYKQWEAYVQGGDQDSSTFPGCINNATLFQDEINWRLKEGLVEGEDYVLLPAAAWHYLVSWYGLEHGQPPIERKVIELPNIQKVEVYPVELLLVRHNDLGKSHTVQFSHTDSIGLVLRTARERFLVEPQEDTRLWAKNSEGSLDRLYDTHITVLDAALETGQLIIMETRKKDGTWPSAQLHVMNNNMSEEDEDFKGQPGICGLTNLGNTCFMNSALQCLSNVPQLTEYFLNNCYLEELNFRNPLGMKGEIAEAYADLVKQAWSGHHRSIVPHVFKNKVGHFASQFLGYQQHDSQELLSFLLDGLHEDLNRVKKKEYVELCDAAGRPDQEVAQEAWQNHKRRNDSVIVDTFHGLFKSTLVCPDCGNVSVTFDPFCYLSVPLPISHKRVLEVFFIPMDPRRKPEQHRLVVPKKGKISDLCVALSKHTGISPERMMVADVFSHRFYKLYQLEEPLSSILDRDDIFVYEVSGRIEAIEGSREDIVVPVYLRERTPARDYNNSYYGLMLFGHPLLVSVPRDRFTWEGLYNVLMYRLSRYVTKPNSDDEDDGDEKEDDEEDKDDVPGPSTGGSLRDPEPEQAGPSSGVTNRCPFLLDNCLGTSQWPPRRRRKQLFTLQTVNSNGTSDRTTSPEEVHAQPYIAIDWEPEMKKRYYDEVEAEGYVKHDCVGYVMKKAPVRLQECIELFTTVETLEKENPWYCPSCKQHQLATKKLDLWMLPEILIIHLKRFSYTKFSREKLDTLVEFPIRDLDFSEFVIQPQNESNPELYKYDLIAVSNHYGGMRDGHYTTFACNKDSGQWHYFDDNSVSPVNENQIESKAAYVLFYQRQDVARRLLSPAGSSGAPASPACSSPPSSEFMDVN

[4] = target: DUBs and other proteins in HEK293 cells (Homo sapiens, UniProt Q14694); conditions: replicates A-C; for Log2 reporter intensity values: USP10: competition with ABP 2, DMSO substract (FC); for Log2 reporter intensity values: USP10, DMSO subtracted
Chain of DUBs and other proteins in HEK293 cells (Homo sapiens, UniProt Q14694) (Q14694 whole entry): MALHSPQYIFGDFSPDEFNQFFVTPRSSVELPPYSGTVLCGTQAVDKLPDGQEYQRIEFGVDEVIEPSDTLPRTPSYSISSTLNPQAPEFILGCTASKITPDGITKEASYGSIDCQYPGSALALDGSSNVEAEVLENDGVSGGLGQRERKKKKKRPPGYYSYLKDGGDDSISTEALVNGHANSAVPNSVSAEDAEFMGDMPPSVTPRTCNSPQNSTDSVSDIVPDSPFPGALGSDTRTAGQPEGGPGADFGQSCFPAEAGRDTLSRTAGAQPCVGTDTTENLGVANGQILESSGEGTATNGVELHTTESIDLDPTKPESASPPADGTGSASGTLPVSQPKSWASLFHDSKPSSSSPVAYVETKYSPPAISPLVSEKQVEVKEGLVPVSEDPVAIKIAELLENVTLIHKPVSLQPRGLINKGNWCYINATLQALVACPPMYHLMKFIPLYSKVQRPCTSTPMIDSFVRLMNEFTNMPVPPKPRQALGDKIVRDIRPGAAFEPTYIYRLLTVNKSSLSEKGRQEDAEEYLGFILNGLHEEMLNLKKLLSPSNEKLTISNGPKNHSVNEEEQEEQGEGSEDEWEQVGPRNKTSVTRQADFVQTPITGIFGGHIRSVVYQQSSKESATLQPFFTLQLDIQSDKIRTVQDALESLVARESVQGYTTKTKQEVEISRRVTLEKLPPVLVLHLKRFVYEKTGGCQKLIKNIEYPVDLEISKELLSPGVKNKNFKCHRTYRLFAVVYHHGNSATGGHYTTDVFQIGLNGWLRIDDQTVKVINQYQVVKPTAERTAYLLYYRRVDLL

[5] = target: T2, DUBs and other proteins in HEK293 cells (Homo sapiens, UniProt Q53GS9); conditions: replicates A-C; for Log2 reporter intensity values: USP39: competition with ABP 2, DMSO substract (FC); for Log2 reporter intensity values: USP39, DMSO subtracted
T2 sequence (Q53GS9 1-565): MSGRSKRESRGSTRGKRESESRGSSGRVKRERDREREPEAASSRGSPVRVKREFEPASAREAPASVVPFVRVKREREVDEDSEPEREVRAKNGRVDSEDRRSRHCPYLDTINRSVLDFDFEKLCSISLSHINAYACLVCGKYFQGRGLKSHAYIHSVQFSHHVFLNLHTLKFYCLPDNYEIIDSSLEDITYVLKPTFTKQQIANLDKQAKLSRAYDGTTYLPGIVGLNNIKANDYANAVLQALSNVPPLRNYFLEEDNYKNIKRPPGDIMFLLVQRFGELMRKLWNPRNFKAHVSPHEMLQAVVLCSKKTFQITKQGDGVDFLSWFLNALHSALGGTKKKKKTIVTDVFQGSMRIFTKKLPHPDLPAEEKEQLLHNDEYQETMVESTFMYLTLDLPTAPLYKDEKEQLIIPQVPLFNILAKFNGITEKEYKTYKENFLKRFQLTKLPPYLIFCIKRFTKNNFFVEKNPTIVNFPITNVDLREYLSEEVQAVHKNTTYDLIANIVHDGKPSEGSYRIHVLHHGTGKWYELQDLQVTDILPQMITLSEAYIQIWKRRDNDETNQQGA

[6] = target: DUBs and other proteins in HEK293 cells (Homo sapiens, UniProt Q7L5N1); conditions: for Log2 reporter intensity values, COPS6: TMT replicates; for Log2 reporter intensity values: COPS6: competition with ABP 2, DMSO substract (FC); for Log2 reporter intensity values: COPS6 / Log2 reporter intensity values: replicates A-C; for Log2 t-test Difference / Log2 reporter intensity values: COPS6
Chain of DUBs and other proteins in HEK293 cells (Homo sapiens, UniProt Q7L5N1) (Q7L5N1 whole entry): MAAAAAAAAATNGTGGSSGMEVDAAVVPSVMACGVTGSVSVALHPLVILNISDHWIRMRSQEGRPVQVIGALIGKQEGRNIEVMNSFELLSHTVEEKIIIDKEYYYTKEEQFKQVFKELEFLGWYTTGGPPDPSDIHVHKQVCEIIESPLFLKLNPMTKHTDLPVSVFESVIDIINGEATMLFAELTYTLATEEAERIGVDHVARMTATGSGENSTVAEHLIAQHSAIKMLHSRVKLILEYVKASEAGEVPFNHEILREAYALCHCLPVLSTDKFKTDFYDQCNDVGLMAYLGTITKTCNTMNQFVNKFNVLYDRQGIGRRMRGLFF

[7] = target: DUBs and other proteins in HEK293 cells (Homo sapiens, UniProt Q9Y5T5); conditions: replicates A-C; for Log2 reporter intensity values: USP16: competition with ABP 2, DMSO substract (FC); for Log2 reporter intensity values: USP16, DMSO subtracted
Chain of DUBs and other proteins in HEK293 cells (Homo sapiens, UniProt Q9Y5T5) (Q9Y5T5 whole entry): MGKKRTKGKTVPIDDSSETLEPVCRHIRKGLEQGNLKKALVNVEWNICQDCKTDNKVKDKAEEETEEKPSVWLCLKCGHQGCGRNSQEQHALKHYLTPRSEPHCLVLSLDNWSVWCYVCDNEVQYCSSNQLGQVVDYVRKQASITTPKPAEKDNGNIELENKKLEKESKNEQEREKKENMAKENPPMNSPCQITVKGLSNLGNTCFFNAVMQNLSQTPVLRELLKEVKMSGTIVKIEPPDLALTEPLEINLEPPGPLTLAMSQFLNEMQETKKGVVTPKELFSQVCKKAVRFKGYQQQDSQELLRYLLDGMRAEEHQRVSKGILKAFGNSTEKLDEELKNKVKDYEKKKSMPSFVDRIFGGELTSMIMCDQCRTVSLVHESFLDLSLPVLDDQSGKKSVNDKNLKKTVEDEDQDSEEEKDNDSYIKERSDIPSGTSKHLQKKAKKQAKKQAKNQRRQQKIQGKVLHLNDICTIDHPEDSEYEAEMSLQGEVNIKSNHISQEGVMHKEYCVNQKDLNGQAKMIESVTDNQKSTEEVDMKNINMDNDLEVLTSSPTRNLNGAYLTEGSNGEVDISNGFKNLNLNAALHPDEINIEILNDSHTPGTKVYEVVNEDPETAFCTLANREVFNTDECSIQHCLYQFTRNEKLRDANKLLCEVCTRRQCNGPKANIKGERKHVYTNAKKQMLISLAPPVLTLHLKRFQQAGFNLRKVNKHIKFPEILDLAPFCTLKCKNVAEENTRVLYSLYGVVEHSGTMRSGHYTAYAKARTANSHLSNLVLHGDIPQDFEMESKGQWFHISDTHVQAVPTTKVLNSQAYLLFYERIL

[8] = 1 μM 1 (60 min) + 20 nM ABP 2 (10 min), All values
[9] = 1 μM 1 (60 min) + 20 nM ABP 2 (10 min), DMSO subtracted
[10] = 4 μM 1 (60 min) + 20 nM ABP 2 (10 min), All values
[11] = 4 μM 1 (60 min) + 20 nM ABP 2 (10 min), DMSO subtracted

SMILES: N#CN1CCC[C@H]1C(=O)N1CCc2c(-c3c[nH]c4ncccc34)cccc21 [Compound 1]
- Log2 reporter intensity values, EIF3F [1, 8]: -0.05755 and -0.0632 and -0.06224
- Log2 reporter intensity values, EIF3F [1, 9]: -0.048 and -0.05365 and -0.05269
- Log2 reporter intensity values, EIF3F [1, 10]: 0.06402 and -0.06596 and 0.05418
- Log2 reporter intensity values, EIF3F [1, 11]: 0.07357 and -0.05641 and 0.06373
- Log2 reporter intensity values: EIF3F ([1]; 1 at 1 μM): 0.9673 and 0.9635 and 0.9641
- Log2 reporter intensity values: EIF3F ([1]; 1 at 4 μM): 1.052 and 0.9617 and 1.045
- Log2 t-test Difference ([1]; 1 - 1 μM): -0.1421
- Log2 t-test Difference ([1]; 1 - 4 μM): -0.06374
- Log2 reporter intensity values ([1]; 1_1 μM, DMSO subtracted): -0.03315 and -0.03692 and -0.03628
- Log2 reporter intensity values ([1]; 1_4 μM, DMSO subtracted): 0.0519 and -0.03877 and 0.04475
- Log2 reporter intensity values ([1]; 1 at 1 μM, DMSO subtracted): -0.048 and -0.05365 and -0.05269
- Log2 reporter intensity values ([1]; 1 at 4 μM, DMSO subtracted): 0.07357 and -0.05641 and 0.06373
- Log2 reporter intensity values: USP5 ([2]; 1 at 1 μM): 0.9731 and 0.9825 and 0.9558
- Log2 reporter intensity values: USP5 ([2]; 1 at 4 μM): 0.9723 and 0.9393 and 0.9714
- Log2 reporter intensity values ([2]; 1_1 μM): -0.02722 and -0.01785 and -0.04454
- Log2 reporter intensity values ([2]; 1_4 μM): -0.02801 and -0.06107 and -0.02897
- Log2 reporter intensity values ([2]; 1 at 1 μM): -0.03934 and -0.0255 and -0.06525
- Log2 reporter intensity values ([2]; 1 at 4 μM): -0.04051 and -0.09041 and -0.04193
- Log2 reporter intensity values: USP11 ([3]; 1 at 1 μM): 1.082 and 1.001 and 1.048
- Log2 reporter intensity values: USP11 ([3]; 1 at 4 μM): 1.053 and 0.9981 and 1.068
- Log2 reporter intensity values ([3]; 1_1 μM): 0.08158 and 0.0009743 and 0.04766
- Log2 reporter intensity values ([3]; 1_4 μM): 0.05297 and -0.002249 and 0.06752
- Log2 reporter intensity values ([3]; 1 at 1 μM): 0.1136 and 0.00189 and 0.06764
- Log2 reporter intensity values ([3]; 1 at 4 μM): 0.07493 and -0.002761 and 0.09472
- Log2 reporter intensity values: USP10 ([4]; 1 at 1 μM): 0.8161 and 0.9562 and 0.9573
- Log2 reporter intensity values: USP10 ([4]; 1 at 4 μM): 0.9286 and 0.9489 and 0.874
- Log2 reporter intensity values ([4]; 1_1 μM): -0.1848 and -0.04476 and -0.04368
- Log2 reporter intensity values ([4]; 1_4 μM): -0.07234 and -0.05211 and -0.1269
- Log2 reporter intensity values ([4]; 1 at 1 μM): -0.2931 and -0.06461 and -0.06297
- Log2 reporter intensity values ([4]; 1 at 4 μM): -0.1068 and -0.07574 and -0.1942
- Log2 reporter intensity values: USP39 ([5]; 1 at 1 μM): 1.016 and 0.9671 and 0.9953
- Log2 reporter intensity values: USP39 ([5]; 1 at 4 μM): 1.053 and 0.9437 and 0.9559
- Log2 reporter intensity values ([5]; 1_1 μM): 0.01573 and -0.03349 and -0.00527
- Log2 reporter intensity values ([5]; 1_4 μM): 0.0526 and -0.05693 and -0.04466
- Log2 reporter intensity values ([5]; 1 at 1 μM): 0.02338 and -0.04824 and -0.006739
- Log2 reporter intensity values ([5]; 1 at 4 μM): 0.0748 and -0.08363 and -0.065
- Log2 reporter intensity values, COPS6 [6, 8]: -0.0741 and -0.01578 and 0.003018
- Log2 reporter intensity values, COPS6 [6, 9]: -0.08651 and -0.02819 and -0.009395
- Log2 reporter intensity values, COPS6 [6, 10]: 0.02899 and -0.02559 and 0.0005347
- Log2 reporter intensity values, COPS6 [6, 11]: 0.01657 and -0.038 and -0.01188
- Log2 reporter intensity values: COPS6 ([6]; 1 at 1 μM): 0.9418 and 0.9806 and 0.9935
- Log2 reporter intensity values: COPS6 ([6]; 1 at 4 μM): 1.012 and 0.974 and 0.9918
- Log2 t-test Difference ([6]; 1 - 1 μM): -0.08501
- Log2 t-test Difference ([6]; 1 - 4 μM): -0.05474
- Log2 reporter intensity values ([6]; 1_1 μM, DMSO subtracted): -0.05832 and -0.01946 and -0.006603
- Log2 reporter intensity values ([6]; 1_4 μM, DMSO subtracted): 0.01144 and -0.02611 and -0.008312
- Log2 reporter intensity values ([6]; 1 at 1 μM, DMSO subtracted): -0.08651 and -0.02819 and -0.009395
- Log2 reporter intensity values ([6]; 1 at 4 μM, DMSO subtracted): 0.01657 and -0.038 and -0.01188
- Log2 reporter intensity values: USP16 ([7]; 1 at 1 μM): 1.022 and 1.047 and 1.014
- Log2 reporter intensity values: USP16 ([7]; 1 at 4 μM): 1.071 and 1.22 and 1.147
- Log2 reporter intensity values ([7]; 1_1 μM): 0.01937 and 0.04439 and 0.01154
- Log2 reporter intensity values ([7]; 1_4 μM): 0.06901 and 0.2175 and 0.1444
- Log2 reporter intensity values ([7]; 1 at 1 μM): 0.03077 and 0.06568 and 0.01967
- Log2 reporter intensity values ([7]; 1 at 4 μM): 0.09923 and 0.2865 and 0.1974
